From US9469650B2, “Melampomagnolide B derivatives” (BOARD OF TRUSTEES OF THE UNIVERSITY OF ARKANSAS, priority 2013, dated 2016)
Like-named read-outs stand apart in the source and are kept apart here.

Key:
[1] = tested on: TK-10; experiment: panel of 60 human tumor cell lines, growth inhibition (Renal Cancer); conditions: Homo sapiens; for CC50: TK-10, read-out: LC50; for IC (TGI): TK-10, read-out: TGI
[2] = tested on: HCC-2998; experiment: panel of 60 human tumor cell lines, growth inhibition (Colon Cancer); conditions: Homo sapiens; for GI50: HCC 2998; for CC50: HCC 2998, read-out: LC50; for IC (TGI): HCC 2998, read-out: TGI
[3] = tested on: IGROV1; experiment: panel of 60 human tumor cell lines, growth inhibition (Ovarian Cancer); conditions: Homo sapiens; for GI50: IGROV-1; for CC50: IGROV-1, read-out: LC50; for IC (TGI): IGROV-1, read-out: TGI
[4] = tested on: BT-549; experiment: panel of 60 human tumor cell lines, growth inhibition (Breast Cancer); conditions: Homo sapiens; for GI50: BT-549; for CC50: BT-549, read-out: LC50; for IC (TGI): BT-549, read-out: TGI
[5] = tested on: SNB-19; experiment: panel of 60 human tumor cell lines, growth inhibition (CNS Cancer); conditions: Homo sapiens; for GI50: SNB-19; for CC50: SNB-19, read-out: LC50; for IC (TGI): SNB-19, read-out: TGI
[6] = tested on: HT29; experiment: panel of 60 human tumor cell lines, growth inhibition (Colon Cancer); conditions: for Percent Growth: HT29; for GI50 / CC50 / IC (TGI): Homo sapiens; for GI50: HT-29; for CC50: HT-29, read-out: LC50; for IC (TGI): HT-29, read-out: TGI
[7] = tested on: ACHN; experiment: panel of 60 human tumor cell lines, growth inhibition (Renal Cancer); conditions: Homo sapiens; for CC50: read-out: LC50; for IC (TGI): read-out: TGI
[8] = tested on: NCI-H226; experiment: panel of 60 human tumor cell lines, growth inhibition (Non-Small Cell Lung Cancer); conditions: Homo sapiens; for GI50: NCI-H226; for CC50: NCI-H226, read-out: LC50; for IC (TGI): NCI-H226, read-out: TGI
[9] = tested on: NCI-H460; experiment: as above; conditions: Homo sapiens; for GI50: NCI-H460; for CC50: NCI-H460, read-out: LC50
[10] = tested on: HS 578T; experiment: panel of 60 human tumor cell lines, growth inhibition (Breast Cancer); conditions: Homo sapiens, Hs-578T; for CC50: read-out: LC50; for IC (TGI): read-out: TGI
[11] = tested on: HOP-62; experiment: panel of 60 human tumor cell lines, growth inhibition (Non-Small Cell Lung Cancer); conditions: Homo sapiens; for GI50: HOP-62; for CC50: HOP-62, read-out: LC50; for IC (TGI): HOP-62, read-out: TGI
[12] = tested on: DU-145; experiment: panel of 60 human tumor cell lines, growth inhibition (Prostate Cancer); conditions: Homo sapiens; for GI50: DU-145; for CC50: DU-145, read-out: LC50; for IC (TGI): DU-145, read-out: TGI
[13] = tested on: 786-0; experiment: panel of 60 human tumor cell lines, growth inhibition (Renal Cancer); conditions: Homo sapiens; for GI50: 786-0; for CC50: 786-0, read-out: LC50; for IC (TGI): 786-0, read-out: TGI
[14] = tested on: U251; experiment: panel of 60 human tumor cell lines, growth inhibition (CNS Cancer); conditions: Homo sapiens; for GI50: U-251; for CC50: U-251, read-out: LC50; for IC (TGI): U-251, read-out: TGI
[15] = tested on: SK-OV-3; experiment: panel of 60 human tumor cell lines, growth inhibition (Ovarian Cancer); conditions: Homo sapiens; for GI50: SK-OV-3; for CC50: SK-OV-3, read-out: LC50; for IC (TGI): SK-OV-3, read-out: TGI
[16] = tested on: HL-60(TB)
[17] = tested on: NCI-H23; experiment: panel of 60 human tumor cell lines, growth inhibition (Non-Small Cell Lung Cancer); conditions: Homo sapiens; for GI50: NCI-H23; for CC50: NCI-H23, read-out: LC50; for IC (TGI): NCI-H23, read-out: TGI
[18] = tested on: NCI-H522; experiment: as above; conditions: Homo sapiens; for GI50: NCI-H522; for CC50: NCI-H522, read-out: LC50; for IC (TGI): NCI-H522, read-out: TGI
[19] = tested on: SF-295; experiment: panel of 60 human tumor cell lines, growth inhibition (CNS Cancer); conditions: Homo sapiens; for GI50: SF-295; for CC50: SF-295, read-out: LC50; for IC (TGI): SF-295, read-out: TGI

C=C1C(=O)O[C@H]2[C@H]1CC/C(COC(=O)NCCN1CCCC1)=C\CC[C@@]1(C)O[C@@H]21 [JVM 59, ((1aR,7aS,10aS,10bS,E)-1a-methyl-8-methylene-9-oxo-1a,2,3,6,7,7a,8,9,10a,10b-decahydrooxireno[2′,3′:9,10]cyclodeca[1,2-b]furan-5-yl)methyl-(2-(pyrrolidin-1-yl)ethyl)carbamate]
GI50 ([1]; TK-10, TK-10, five dose): 3.11 µM
GI50 ([1]; TK-10, TK-10, 5-dose assay): 3.11 µM
CC50 [1]: 40.2 µM
IC (TGI) [1]: 14.1 µM
GI50 [2]: 19.2 µM
CC50 [2]: 67.9 µM
IC (TGI) [2]: 36.1 µM
GI50 [3]: 4.09 µM
CC50 [3]: 68.5 µM
IC (TGI) [3]: 16.2 µM
GI50 [4]: 4.75 µM
CC50 [4]: 45 µM
IC (TGI) [4]: 18.6 µM
GI50 [5]: 59.1 µM
CC50 [5]: > 100 µM
IC (TGI) [5]: > 100 µM
Percent Growth ([6]; Log10 Concentration −4.0): −76%
Percent Growth ([6]; Log10 Concentration −5.0): 59%
Percent Growth ([6]; Log10 Concentration −6.0): 99%
Percent Growth ([6]; Log10 Concentration −7.0): 101%
Percent Growth ([6]; Log10 Concentration −8.0): 98%
GI50 [6]: 11.7 µM
CC50 [6]: 64.4 µM
IC (TGI) [6]: 27.4 µM
GI50 [7]: 3.8 µM
CC50 [7]: 39.4 µM
IC (TGI) [7]: 14.7 µM
GI50 [8]: 35.3 µM
CC50 [8]: > 100 µM
IC (TGI) [8]: > 100 µM
GI50 [9]: 22.3 µM
CC50 [9]: > 100 µM
IC (TGI) ([9]; NCI-H460, read-out: TGI): 51.4 µM
GI50 [10]: 19.7 µM
CC50 [10]: > 100 µM
IC (TGI) [10]: 69 µM
GI50 [11]: 18 µM
CC50 [11]: 62.3 µM
IC (TGI) [11]: 33.5 µM
GI50 [12]: 7.42 µM
CC50 [12]: 46.3 µM
IC (TGI) [12]: 20.2 µM
GI50 [13]: 14.4 µM
CC50 [13]: 60 µM
IC (TGI) [13]: 29.4 µM
GI50 [14]: 26.7 µM
CC50 [14]: > 100 µM
IC (TGI) [14]: 93.1 µM
GI50 [15]: 29.4 µM
CC50 [15]: > 100 µM
IC (TGI) [15]: > 100 µM
Percent Growth ([16]; Log10 Concentration −4.0): −63%
Percent Growth ([16]; Log10 Concentration −5.0): 22%
Percent Growth ([16]; Log10 Concentration −6.0): 95%
Percent Growth ([16]; Log10 Concentration −7.0): 96%
Percent Growth ([16]; Log10 Concentration −8.0): 88%
GI50 [17]: 16.4 µM
CC50 [17]: 80.4 µM
IC (TGI) [17]: 36.3 µM
GI50 [18]: 1780 nM
CC50 [18]: 32.2 µM
IC (TGI) [18]: 5.05 µM
GI50 [19]: 48.8 µM
CC50 [19]: > 100 µM
IC (TGI) [19]: > 100 µM

C=C1C(=O)O[C@H]2[C@H]1CC/C(COC(=O)OC)=C\CC[C@@]1(C)O[C@@H]21 [JVM 2-40]
GI50 ([1]; TK-10, TK-10, NCI five dose): 2.65 µM
CC50 [1]: 32.9 µM
IC (TGI) [1]: 10.8 µM
GI50 [2]: 13.8 µM
CC50 [2]: 56.8 µM
IC (TGI) [2]: 28 µM
GI50 [3]: 16.6 µM
CC50 [3]: 85.8 µM
IC (TGI) [3]: 37.7 µM
GI50 [4]: 5.74 µM
CC50 [4]: 43.5 µM
IC (TGI) [4]: 18.7 µM
GI50 [5]: 13.5 µM
CC50 [5]: 59.1 µM
IC (TGI) [5]: 28.2 µM
Percent Growth ([6]; Log10 Concentration −4.0): −76%
Percent Growth ([6]; Log10 Concentration −5.0): 83%
Percent Growth ([6]; Log10 Concentration −6.0): 99%
Percent Growth ([6]; Log10 Concentration −7.0): 96%
Percent Growth ([6]; Log10 Concentration −8.0): 96%
GI50 [6]: 16.1 µM
CC50 [6]: 68.6 µM
IC (TGI) [6]: 33.2 µM
GI50 [7]: 2.4 µM
CC50 [7]: 32.2 µM
IC (TGI) [7]: 8.17 µM
GI50 [8]: 7.07 µM
CC50 [8]: 87.7 µM
IC (TGI) [8]: 27.4 µM
GI50 [9]: 16.7 µM
CC50 [9]: 89.7 µM
GI50 [10]: 4.72 µM
CC50 [10]: > 100 µM
IC (TGI) [10]: 38.9 µM
GI50 [11]: 14.9 µM
CC50 [11]: 62.2 µM
IC (TGI) [11]: 30.4 µM
GI50 [12]: 3.35 µM
CC50 [12]: 37.7 µM
IC (TGI) [12]: 14 µM
GI50 [13]: 3.29 µM
CC50 [13]: 48.5 µM
IC (TGI) [13]: 14.4 µM
GI50 [14]: 16.4 µM
CC50 [14]: 55.5 µM
IC (TGI) [14]: 30.2 µM
GI50 [15]: 22.7 µM
CC50 [15]: > 100 µM
IC (TGI) [15]: 59.7 µM
Percent Growth ([16]; Log10 Concentration −4.0): −55%
Percent Growth ([16]; Log10 Concentration −5.0): −12%
Percent Growth ([16]; Log10 Concentration −6.0): 68%
Percent Growth ([16]; Log10 Concentration −7.0): 91%
Percent Growth ([16]; Log10 Concentration −8.0): 97%
GI50 [17]: 13 µM
CC50 [17]: 85.2 µM
IC (TGI) [17]: 33.3 µM
GI50 [18]: 1070 nM
CC50 [18]: 5.82 µM
IC (TGI) [18]: 2.5 µM
GI50 [19]: 13.2 µM
CC50 [19]: 59.3 µM
IC (TGI) [19]: 28 µM
